Source: BigSolDB 2.1

Which solubility (mole fraction) (in THF, 293.15 K) does the source give for O=P(NC1CCCCC1)(Oc1ccccc1)Oc1ccccc1 here?
Its solubility (mole fraction) is 0.168.

And the solubility (mole fraction) (in THF, 298.15 K)?
The solubility (mole fraction) was 0.192.

And the solubility (mole fraction) (in THF, 303.15 K)?
The solubility (mole fraction) was 0.229.

What about the solubility (mole fraction) (in THF, 308.15 K) of the same molecule?
Its solubility (mole fraction) is 0.269.

And the solubility (mole fraction) (in THF, 313.15 K)?
Its solubility (mole fraction) is 0.318.

What about the solubility (mole fraction) (in THF, 318.15 K) of the same molecule?
The solubility (mole fraction) was 0.372.

And the solubility (mole fraction) (in THF, 323.15 K)?
The solubility (mole fraction) was 0.419.

What about the solubility (mole fraction) (in THF, 328.15 K) of the same molecule?
The solubility (mole fraction) was 0.504.

What about the solubility (mole fraction) (in THF, 333.15 K) of the same molecule?
Its solubility (mole fraction) is 0.567.

And the solubility (mole fraction) (in acetone, 293.15 K)?
The solubility (mole fraction) was 0.0439.

And the solubility (mole fraction) (in acetone, 298.15 K)?
Its solubility (mole fraction) is 0.0611.

And the solubility (mole fraction) (in acetone, 303.15 K)?
The solubility (mole fraction) was 0.0796.

And the solubility (mole fraction) (in acetone, 308.15 K)?
Its solubility (mole fraction) is 0.109.

What about the solubility (mole fraction) (in acetone, 313.15 K) of the same molecule?
The solubility (mole fraction) was 0.134.

What about the solubility (mole fraction) (in acetone, 318.15 K) of the same molecule?
Its solubility (mole fraction) is 0.187.

What about the solubility (mole fraction) (in acetone, 323.15 K) of the same molecule?
The solubility (mole fraction) was 0.229.

And the solubility (mole fraction) (in acetone, 328.15 K)?
The solubility (mole fraction) was 0.271.

What about the solubility (mole fraction) (in acetonitrile, 293.15 K) of the same molecule?
Its solubility (mole fraction) is 0.0115.

And the solubility (mole fraction) (in acetonitrile, 298.15 K)?
The solubility (mole fraction) was 0.0171.

And the solubility (mole fraction) (in acetonitrile, 303.15 K)?
Its solubility (mole fraction) is 0.0248.

What about the solubility (mole fraction) (in acetonitrile, 308.15 K) of the same molecule?
The solubility (mole fraction) was 0.0371.

What about the solubility (mole fraction) (in acetonitrile, 313.15 K) of the same molecule?
Its solubility (mole fraction) is 0.0521.

What about the solubility (mole fraction) (in acetonitrile, 318.15 K) of the same molecule?
The solubility (mole fraction) was 0.0759.

And the solubility (mole fraction) (in acetonitrile, 323.15 K)?
The solubility (mole fraction) was 0.106.

What about the solubility (mole fraction) (in acetonitrile, 328.15 K) of the same molecule?
Its solubility (mole fraction) is 0.148.

And the solubility (mole fraction) (in acetonitrile, 333.15 K)?
The solubility (mole fraction) was 0.191.

And the solubility (mole fraction) (in acetonitrile, 338.15 K)?
The solubility (mole fraction) was 0.263.

And the solubility (mole fraction) (in acetonitrile, 343.15 K)?
The solubility (mole fraction) was 0.358.

What about the solubility (mole fraction) (in benzene, 293.15 K) of the same molecule?
Its solubility (mole fraction) is 0.077.

What about the solubility (mole fraction) (in benzene, 298.15 K) of the same molecule?
Its solubility (mole fraction) is 0.0991.

And the solubility (mole fraction) (in benzene, 303.15 K)?
The solubility (mole fraction) was 0.127.

What about the solubility (mole fraction) (in benzene, 308.15 K) of the same molecule?
Its solubility (mole fraction) is 0.159.

What about the solubility (mole fraction) (in benzene, 313.15 K) of the same molecule?
The solubility (mole fraction) was 0.195.

What about the solubility (mole fraction) (in benzene, 318.15 K) of the same molecule?
Its solubility (mole fraction) is 0.25.

And the solubility (mole fraction) (in benzene, 323.15 K)?
Its solubility (mole fraction) is 0.292.

What about the solubility (mole fraction) (in benzene, 328.15 K) of the same molecule?
The solubility (mole fraction) was 0.374.

What about the solubility (mole fraction) (in benzene, 333.15 K) of the same molecule?
Its solubility (mole fraction) is 0.457.

What about the solubility (mole fraction) (in benzene, 338.15 K) of the same molecule?
Its solubility (mole fraction) is 0.55.

And the solubility (mole fraction) (in benzene, 343.15 K)?
Its solubility (mole fraction) is 0.636.

What about the solubility (mole fraction) (in chloroform, 293.15 K) of the same molecule?
Its solubility (mole fraction) is 0.207.

And the solubility (mole fraction) (in chloroform, 298.15 K)?
The solubility (mole fraction) was 0.233.

And the solubility (mole fraction) (in chloroform, 303.15 K)?
Its solubility (mole fraction) is 0.266.

What about the solubility (mole fraction) (in chloroform, 308.15 K) of the same molecule?
The solubility (mole fraction) was 0.313.

And the solubility (mole fraction) (in chloroform, 313.15 K)?
The solubility (mole fraction) was 0.352.

And the solubility (mole fraction) (in chloroform, 318.15 K)?
The solubility (mole fraction) was 0.4.

What about the solubility (mole fraction) (in chloroform, 323.15 K) of the same molecule?
Its solubility (mole fraction) is 0.459.

What about the solubility (mole fraction) (in chloroform, 328.15 K) of the same molecule?
The solubility (mole fraction) was 0.518.

And the solubility (mole fraction) (in dichloromethane, 278.15 K)?
Its solubility (mole fraction) is 0.0884.

And the solubility (mole fraction) (in dichloromethane, 283.15 K)?
Its solubility (mole fraction) is 0.102.

And the solubility (mole fraction) (in dichloromethane, 288.15 K)?
Its solubility (mole fraction) is 0.129.

And the solubility (mole fraction) (in dichloromethane, 293.15 K)?
Its solubility (mole fraction) is 0.155.

And the solubility (mole fraction) (in dichloromethane, 298.15 K)?
Its solubility (mole fraction) is 0.18.

What about the solubility (mole fraction) (in dichloromethane, 303.15 K) of the same molecule?
Its solubility (mole fraction) is 0.216.

What about the solubility (mole fraction) (in dichloromethane, 308.15 K) of the same molecule?
Its solubility (mole fraction) is 0.26.

What about the solubility (mole fraction) (in ethanol, 293.15 K) of the same molecule?
The solubility (mole fraction) was 0.0358.

What about the solubility (mole fraction) (in ethanol, 298.15 K) of the same molecule?
The solubility (mole fraction) was 0.049.

And the solubility (mole fraction) (in ethanol, 303.15 K)?
The solubility (mole fraction) was 0.0638.

What about the solubility (mole fraction) (in ethanol, 308.15 K) of the same molecule?
Its solubility (mole fraction) is 0.0867.

What about the solubility (mole fraction) (in ethanol, 313.15 K) of the same molecule?
The solubility (mole fraction) was 0.116.

And the solubility (mole fraction) (in ethanol, 318.15 K)?
Its solubility (mole fraction) is 0.153.

What about the solubility (mole fraction) (in ethanol, 323.15 K) of the same molecule?
The solubility (mole fraction) was 0.196.

What about the solubility (mole fraction) (in ethanol, 328.15 K) of the same molecule?
Its solubility (mole fraction) is 0.253.

And the solubility (mole fraction) (in ethanol, 333.15 K)?
Its solubility (mole fraction) is 0.317.

What about the solubility (mole fraction) (in ethanol, 338.15 K) of the same molecule?
Its solubility (mole fraction) is 0.406.

And the solubility (mole fraction) (in ethyl acetate, 293.15 K)?
Its solubility (mole fraction) is 0.0305.

And the solubility (mole fraction) (in ethyl acetate, 298.15 K)?
Its solubility (mole fraction) is 0.0395.

And the solubility (mole fraction) (in ethyl acetate, 303.15 K)?
The solubility (mole fraction) was 0.0549.

What about the solubility (mole fraction) (in ethyl acetate, 308.15 K) of the same molecule?
Its solubility (mole fraction) is 0.0721.

And the solubility (mole fraction) (in ethyl acetate, 313.15 K)?
Its solubility (mole fraction) is 0.0946.

What about the solubility (mole fraction) (in ethyl acetate, 318.15 K) of the same molecule?
The solubility (mole fraction) was 0.128.

And the solubility (mole fraction) (in ethyl acetate, 323.15 K)?
The solubility (mole fraction) was 0.166.

What about the solubility (mole fraction) (in ethyl acetate, 328.15 K) of the same molecule?
The solubility (mole fraction) was 0.211.

And the solubility (mole fraction) (in ethyl acetate, 333.15 K)?
Its solubility (mole fraction) is 0.264.

And the solubility (mole fraction) (in ethyl acetate, 338.15 K)?
Its solubility (mole fraction) is 0.341.

And the solubility (mole fraction) (in ethyl acetate, 343.15 K)?
The solubility (mole fraction) was 0.426.

And the solubility (mole fraction) (in methanol, 293.15 K)?
Its solubility (mole fraction) is 0.0411.

And the solubility (mole fraction) (in methanol, 298.15 K)?
The solubility (mole fraction) was 0.0533.

What about the solubility (mole fraction) (in methanol, 303.15 K) of the same molecule?
The solubility (mole fraction) was 0.0702.

And the solubility (mole fraction) (in methanol, 308.15 K)?
Its solubility (mole fraction) is 0.0955.

And the solubility (mole fraction) (in methanol, 313.15 K)?
The solubility (mole fraction) was 0.121.

What about the solubility (mole fraction) (in methanol, 318.15 K) of the same molecule?
The solubility (mole fraction) was 0.161.

And the solubility (mole fraction) (in methanol, 323.15 K)?
Its solubility (mole fraction) is 0.212.

And the solubility (mole fraction) (in methanol, 328.15 K)?
Its solubility (mole fraction) is 0.281.

What about the solubility (mole fraction) (in methanol, 333.15 K) of the same molecule?
Its solubility (mole fraction) is 0.356.

And the solubility (mole fraction) (in toluene, 293.15 K)?
The solubility (mole fraction) was 0.0539.

What about the solubility (mole fraction) (in toluene, 298.15 K) of the same molecule?
The solubility (mole fraction) was 0.0688.

And the solubility (mole fraction) (in toluene, 303.15 K)?
Its solubility (mole fraction) is 0.0911.

And the solubility (mole fraction) (in toluene, 313.15 K)?
Its solubility (mole fraction) is 0.154.

And the solubility (mole fraction) (in toluene, 323.15 K)?
The solubility (mole fraction) was 0.259.

What about the solubility (mole fraction) (in toluene, 333.15 K) of the same molecule?
The solubility (mole fraction) was 0.409.

And the solubility (mole fraction) (in toluene, 343.15 K)?
Its solubility (mole fraction) is 0.611.
